{"source": "ChEMBL document CHEMBL2021889", "about": "“Multipotent MAO and cholinesterase inhibitors for the treatment of Alzheimer's disease: synthesis, pharmacological analysis and molecular modeling of heterocyclic substituted alkyl and cycloalkyl propargyl amine” (Eur J Med Chem, 2012)", "key": {"Acetylcholinesterase [1]": {"molecular_target": "T1, Acetylcholinesterase (Electrophorus electricus, UniProt O42275)", "T1 sequence (O42275 whole entry)": "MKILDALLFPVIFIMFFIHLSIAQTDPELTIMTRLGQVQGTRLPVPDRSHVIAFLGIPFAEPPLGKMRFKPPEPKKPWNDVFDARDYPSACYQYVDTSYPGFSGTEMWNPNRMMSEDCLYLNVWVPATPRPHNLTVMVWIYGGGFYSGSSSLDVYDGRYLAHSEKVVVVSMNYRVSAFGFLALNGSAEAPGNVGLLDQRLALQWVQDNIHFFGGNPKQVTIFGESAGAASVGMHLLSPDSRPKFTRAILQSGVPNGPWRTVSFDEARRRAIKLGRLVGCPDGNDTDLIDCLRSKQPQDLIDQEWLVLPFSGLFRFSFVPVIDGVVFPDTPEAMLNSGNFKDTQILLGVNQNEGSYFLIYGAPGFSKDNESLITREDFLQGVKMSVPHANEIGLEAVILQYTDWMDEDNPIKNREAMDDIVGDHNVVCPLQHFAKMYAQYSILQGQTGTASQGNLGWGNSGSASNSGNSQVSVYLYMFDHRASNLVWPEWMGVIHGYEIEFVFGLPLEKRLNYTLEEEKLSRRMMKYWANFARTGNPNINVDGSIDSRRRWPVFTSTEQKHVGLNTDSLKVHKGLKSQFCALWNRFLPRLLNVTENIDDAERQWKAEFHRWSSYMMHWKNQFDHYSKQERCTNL", "description": "Inhibition of electric eel AChE using acetylthiocholine iodide as substrate after 15 mins by Ellman's method"}, "[2]": {"molecular_target": "T2, Amine oxidase [flavin-containing] A (Rattus norvegicus, UniProt P21396)", "T2 sequence (P21396 whole entry)": "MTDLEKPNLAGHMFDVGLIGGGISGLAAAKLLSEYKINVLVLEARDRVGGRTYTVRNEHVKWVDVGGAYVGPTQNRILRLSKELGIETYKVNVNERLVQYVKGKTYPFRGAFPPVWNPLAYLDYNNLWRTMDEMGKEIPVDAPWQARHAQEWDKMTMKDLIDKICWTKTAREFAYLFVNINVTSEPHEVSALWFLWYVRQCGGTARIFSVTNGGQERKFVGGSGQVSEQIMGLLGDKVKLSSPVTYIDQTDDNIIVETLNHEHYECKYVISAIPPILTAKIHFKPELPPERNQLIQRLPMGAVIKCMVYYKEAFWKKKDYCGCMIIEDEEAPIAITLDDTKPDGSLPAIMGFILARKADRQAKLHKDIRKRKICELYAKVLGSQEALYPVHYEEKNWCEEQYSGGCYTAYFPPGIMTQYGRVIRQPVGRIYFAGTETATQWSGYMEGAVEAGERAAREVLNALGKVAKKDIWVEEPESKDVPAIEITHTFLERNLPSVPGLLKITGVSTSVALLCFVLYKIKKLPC", "assay": "biochemical", "description": "Inhibition of mitochondrial MAO-A in rat liver homogenates using [14C]-(5-hydroxy-triptamine) as substrate preincubated for 30 mins by liquid scintillation counting"}, "[3]": {"molecular_target": "T3, Amine oxidase [flavin-containing] B (Rattus norvegicus, UniProt P19643)", "T3 sequence (P19643 whole entry)": "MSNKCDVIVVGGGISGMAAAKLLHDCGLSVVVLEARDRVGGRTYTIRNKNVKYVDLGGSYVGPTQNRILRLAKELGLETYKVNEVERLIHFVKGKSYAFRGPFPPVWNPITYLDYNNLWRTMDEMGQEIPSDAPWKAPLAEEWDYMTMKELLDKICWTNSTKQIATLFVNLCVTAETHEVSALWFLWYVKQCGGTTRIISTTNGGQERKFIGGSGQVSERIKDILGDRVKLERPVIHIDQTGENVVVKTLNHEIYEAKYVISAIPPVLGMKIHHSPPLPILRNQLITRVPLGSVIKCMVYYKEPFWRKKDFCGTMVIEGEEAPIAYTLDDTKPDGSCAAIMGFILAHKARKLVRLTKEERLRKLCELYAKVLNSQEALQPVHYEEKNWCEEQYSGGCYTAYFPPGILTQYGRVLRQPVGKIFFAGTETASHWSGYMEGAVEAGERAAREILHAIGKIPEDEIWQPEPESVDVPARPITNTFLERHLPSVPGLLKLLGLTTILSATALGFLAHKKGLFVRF", "assay": "biochemical", "description": "Inhibition of mitochondrial MAO-B in rat liver homogenates using [14C]-phenylethylamine as substrate preincubated for 30 mins by liquid scintillation counting"}, "Butyrylcholinesterase [4]": {"molecular_target": "T4, Butyrylcholinesterase (Equus caballus, UniProt Q9N1N9)", "T4 sequence (Q9N1N9 whole entry)": "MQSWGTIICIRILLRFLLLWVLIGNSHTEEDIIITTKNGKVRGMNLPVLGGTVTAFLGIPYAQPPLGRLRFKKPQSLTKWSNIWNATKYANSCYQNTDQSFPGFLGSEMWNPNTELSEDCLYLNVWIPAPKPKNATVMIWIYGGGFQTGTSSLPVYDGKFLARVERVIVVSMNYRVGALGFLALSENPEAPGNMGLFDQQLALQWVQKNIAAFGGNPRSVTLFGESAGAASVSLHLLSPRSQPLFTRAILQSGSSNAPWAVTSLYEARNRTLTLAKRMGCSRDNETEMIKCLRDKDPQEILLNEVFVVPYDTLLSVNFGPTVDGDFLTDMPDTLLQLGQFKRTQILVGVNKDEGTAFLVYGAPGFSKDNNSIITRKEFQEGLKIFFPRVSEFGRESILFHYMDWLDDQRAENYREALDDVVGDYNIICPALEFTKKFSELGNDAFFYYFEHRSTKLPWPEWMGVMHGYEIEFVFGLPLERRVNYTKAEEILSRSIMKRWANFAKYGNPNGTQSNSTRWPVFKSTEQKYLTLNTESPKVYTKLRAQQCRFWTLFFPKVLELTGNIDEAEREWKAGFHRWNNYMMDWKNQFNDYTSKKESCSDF", "description": "Inhibition of equine serum BChE using butyrylthiocholine iodide as substrate after 15 mins by Ellman's method"}, "Butyrylcholinesterase [5]": {"molecular_target": "T4, Butyrylcholinesterase", "assay": "Competitive inhibition of equine serum BChE using acetylthiocholine as substrate by Lineweaver-Burk plot analysis"}, "Acetylcholinesterase [6]": {"molecular_target": "Acetylcholinesterase (Homo sapiens, UniProt P22303)", "sequence (P22303 whole entry)": "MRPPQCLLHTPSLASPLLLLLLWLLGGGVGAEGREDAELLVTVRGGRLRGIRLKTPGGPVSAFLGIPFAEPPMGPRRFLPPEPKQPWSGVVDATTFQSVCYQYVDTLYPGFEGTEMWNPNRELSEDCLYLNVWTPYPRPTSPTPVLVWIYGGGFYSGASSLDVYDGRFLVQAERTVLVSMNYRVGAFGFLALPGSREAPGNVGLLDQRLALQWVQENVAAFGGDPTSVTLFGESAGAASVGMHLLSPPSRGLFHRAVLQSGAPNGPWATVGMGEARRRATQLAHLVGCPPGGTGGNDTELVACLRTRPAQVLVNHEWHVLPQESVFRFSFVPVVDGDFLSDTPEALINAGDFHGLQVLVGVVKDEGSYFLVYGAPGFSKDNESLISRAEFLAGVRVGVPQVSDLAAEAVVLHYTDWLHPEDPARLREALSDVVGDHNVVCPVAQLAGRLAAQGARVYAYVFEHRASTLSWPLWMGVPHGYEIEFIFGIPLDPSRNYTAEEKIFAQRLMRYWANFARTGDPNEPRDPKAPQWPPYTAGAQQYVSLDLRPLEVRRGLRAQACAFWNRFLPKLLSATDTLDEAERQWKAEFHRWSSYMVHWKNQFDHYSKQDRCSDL", "assay": "Inhibition of human recombinant AChE using acetylthiocholine iodide as substrate by Ellman's method"}, "Cholinesterase": {"molecular_target": "Cholinesterase (Homo sapiens, UniProt P06276)", "sequence (P06276 whole entry)": "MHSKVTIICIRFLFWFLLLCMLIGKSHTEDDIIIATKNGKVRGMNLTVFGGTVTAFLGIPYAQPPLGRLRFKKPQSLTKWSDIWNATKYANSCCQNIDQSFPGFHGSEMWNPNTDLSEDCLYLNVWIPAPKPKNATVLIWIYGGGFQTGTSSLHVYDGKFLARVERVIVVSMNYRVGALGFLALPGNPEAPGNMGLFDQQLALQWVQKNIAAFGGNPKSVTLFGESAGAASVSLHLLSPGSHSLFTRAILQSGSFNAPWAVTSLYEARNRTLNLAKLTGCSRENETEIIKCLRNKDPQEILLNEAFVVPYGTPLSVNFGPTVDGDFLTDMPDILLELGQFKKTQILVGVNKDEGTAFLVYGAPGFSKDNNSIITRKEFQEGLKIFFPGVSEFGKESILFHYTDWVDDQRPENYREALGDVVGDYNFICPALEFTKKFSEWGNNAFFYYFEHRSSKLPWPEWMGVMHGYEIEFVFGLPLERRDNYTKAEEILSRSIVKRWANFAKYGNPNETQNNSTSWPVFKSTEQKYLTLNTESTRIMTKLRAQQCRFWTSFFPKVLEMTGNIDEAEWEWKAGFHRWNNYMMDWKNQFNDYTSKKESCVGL", "assay": "Inhibition of human serum BuChE using butyrylthiocholine iodide as substrate by Ellman's method"}, "Acetylcholinesterase [7]": {"molecular_target": "T1, Acetylcholinesterase", "assay": "Non-competitive inhibition of electric eel AChE using acetylthiocholine as substrate by Lineweaver-Burk plot analysis"}}, "data": [{"compound": "CNCc1cc2cc(OCc3ccccc3)ccc2n1C", "values": [{"measurement": "IC50", "setting": "Acetylcholinesterase [1]", "result": "> 100000", "unit": "nM"}, {"measurement": "IC50", "setting": "[2]", "result": 99.3, "unit": "µM"}, {"measurement": "IC50", "setting": "[3]", "result": 44.1, "unit": "µM"}, {"measurement": "IC50", "setting": "Butyrylcholinesterase [4]", "result": 11, "unit": "µM"}]}, {"compound": "C#CCN1CCc2nc3nc(OC)c(C#N)cc3c(N)c2C1", "values": [{"measurement": "IC50", "setting": "Acetylcholinesterase [1]", "result": 540, "unit": "nM"}, {"measurement": "IC50", "setting": "[2]", "result": 495, "unit": "µM"}, {"measurement": "IC50", "setting": "[3]", "result": "> 100", "unit": "µM"}, {"measurement": "IC50", "setting": "Butyrylcholinesterase [4]", "result": "> 100", "unit": "µM"}]}, {"compound": "C#CCN1CCc2nc3ccccc3c(N)c2C1", "values": [{"measurement": "IC50", "setting": "Acetylcholinesterase [1]", "result": 1500, "unit": "nM"}, {"measurement": "IC50", "setting": "[2]", "result": 241, "unit": "µM"}, {"measurement": "IC50", "setting": "[3]", "result": 617, "unit": "µM"}, {"measurement": "IC50", "setting": "Butyrylcholinesterase [4]", "result": 6.6, "unit": "µM"}]}, {"compound": "C#CCN1CCc2nc3nc(N4CCCCC4)c(C#N)cc3c(N)c2C1", "values": [{"measurement": "IC50", "setting": "Acetylcholinesterase [1]", "result": 66, "unit": "nM"}, {"measurement": "IC50", "setting": "[2]", "result": 330, "unit": "µM"}, {"measurement": "IC50", "setting": "[3]", "result": 296, "unit": "µM"}, {"measurement": "IC50", "setting": "Butyrylcholinesterase [4]", "result": 10, "unit": "µM"}]}, {"compound": "C#CCN1CCc2nc3nc(N(C)C)c(C#N)cc3c(N)c2C1", "values": [{"measurement": "IC50", "setting": "Acetylcholinesterase [1]", "result": 29, "unit": "nM"}, {"measurement": "IC50", "setting": "[2]", "result": 1000, "unit": "µM"}, {"measurement": "IC50", "setting": "[3]", "result": 281, "unit": "µM"}, {"measurement": "IC50", "setting": "Butyrylcholinesterase [4]", "result": "> 100", "unit": "µM"}]}, {"compound": "C#CCN(C)Cc1cc2cc(OCc3ccccc3)ccc2n1C", "values": [{"measurement": "IC50", "setting": "Acetylcholinesterase [1]", "result": "> 100000", "unit": "nM"}, {"measurement": "IC50", "setting": "Butyrylcholinesterase [4]", "result": "> 100", "unit": "µM"}]}, {"compound": "C#CCN1CCc2nc3nc(Cl)c(C#N)cc3c(N)c2C1", "values": [{"measurement": "IC50", "setting": "Acetylcholinesterase [1]", "result": 1400, "unit": "nM"}, {"measurement": "IC50", "setting": "[2]", "result": 1050, "unit": "µM"}, {"measurement": "IC50", "setting": "[3]", "result": 660, "unit": "µM"}, {"measurement": "IC50", "setting": "Butyrylcholinesterase [4]", "result": "> 100", "unit": "µM"}]}, {"compound": "CC#CCN(C)Cc1cc2cc(OCc3ccccc3)ccc2[nH]1", "values": [{"measurement": "IC50", "setting": "Acetylcholinesterase [1]", "result": "> 100000", "unit": "nM"}, {"measurement": "Ki", "setting": "Butyrylcholinesterase [5]", "result": 7.1, "unit": "µM"}, {"measurement": "IC50", "setting": "Butyrylcholinesterase [4]", "result": 7, "unit": "µM"}]}, {"compound": "C=C=CCN(C)Cc1cc2cc(OCc3ccccc3)ccc2n1C", "values": [{"measurement": "IC50", "setting": "Acetylcholinesterase [1]", "result": "> 100000", "unit": "nM"}, {"measurement": "IC50", "setting": "Butyrylcholinesterase [4]", "result": 14, "unit": "µM"}]}, {"compound": "C#CCN1CCc2nc3nc(N4CCCC4)c(C#N)cc3c(N)c2C1", "values": [{"measurement": "IC50", "setting": "Acetylcholinesterase [6]", "result": 650, "unit": "nM"}, {"measurement": "IC50", "setting": "Acetylcholinesterase [1]", "result": 25, "unit": "nM"}, {"measurement": "IC50", "setting": "Cholinesterase", "result": 82, "unit": "µM"}, {"measurement": "IC50", "setting": "[2]", "result": 618, "unit": "µM"}, {"measurement": "Ki", "setting": "Acetylcholinesterase [7]", "result": 65, "unit": "nM"}, {"measurement": "IC50", "setting": "[3]", "result": 357, "unit": "µM"}, {"measurement": "IC50", "setting": "Butyrylcholinesterase [4]", "result": 27, "unit": "µM"}]}, {"compound": "C#CCN(C)Cc1cc2cc(OCc3ccccc3)ccc2[nH]1", "values": [{"measurement": "IC50", "setting": "Acetylcholinesterase [1]", "result": "> 100000", "unit": "nM"}, {"measurement": "IC50", "setting": "Butyrylcholinesterase [4]", "result": 22, "unit": "µM"}]}, {"compound": "C#CCNCc1cc2cc(OCc3ccccc3)ccc2[nH]1", "values": [{"measurement": "IC50", "setting": "Acetylcholinesterase [1]", "result": "> 100000", "unit": "nM"}, {"measurement": "IC50", "setting": "[3]", "result": 0.022, "unit": "µM"}, {"measurement": "IC50", "setting": "Butyrylcholinesterase [4]", "result": 43, "unit": "µM"}]}, {"compound": "CC#CCN(C)Cc1cc2cc(OCc3ccccc3)ccc2n1C", "values": [{"measurement": "IC50", "setting": "Acetylcholinesterase [1]", "result": "> 100000", "unit": "nM"}, {"measurement": "IC50", "setting": "Butyrylcholinesterase [4]", "result": "> 100", "unit": "µM"}]}]}
